Columns and labels:
Assay type in all cases: biochemical
[1] = target: PKC alpha kinase (Homo sapiens, UniProt P17252); assay: PKC alpha kinase inhibition, coupled-enzyme NADH absorbance assay (Ki); settings: 130 μM ATP, 4.5 nM PKC alpha, 30° C.; read-out: Ki PKC alpha
[2] = target: PKC theta kinase (Homo sapiens, UniProt Q04759); assay: PKC theta kinase inhibition, coupled-enzyme NADH absorbance assay (Ki); settings: 240 μM ATP, 18 nM PKC theta, 30° C.; read-out: Ki PKC theta
How it was run: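 Coupled-enzyme kinase assay following NADH absorbance at 340 nm, in 100 mM HEPES pH 7.5, 10 mM MgCl2, 25 mM NaCl, 0.1 mM EDTA, 0.01% Brij. Compound in DMSO preincubated with enzyme 10 min at 30 °C. Ki from initial rates by non-linear regression.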

[3] = target: PKC delta kinase (Homo sapiens, UniProt Q05655); assay: PKC delta kinase inhibition, coupled-enzyme NADH absorbance assay (Ki); settings: 150 μM ATP, 46 nM PKC delta, 30° C.; read-out: Ki PKC delta
Sequence of PKC delta kinase (Q05655 whole entry): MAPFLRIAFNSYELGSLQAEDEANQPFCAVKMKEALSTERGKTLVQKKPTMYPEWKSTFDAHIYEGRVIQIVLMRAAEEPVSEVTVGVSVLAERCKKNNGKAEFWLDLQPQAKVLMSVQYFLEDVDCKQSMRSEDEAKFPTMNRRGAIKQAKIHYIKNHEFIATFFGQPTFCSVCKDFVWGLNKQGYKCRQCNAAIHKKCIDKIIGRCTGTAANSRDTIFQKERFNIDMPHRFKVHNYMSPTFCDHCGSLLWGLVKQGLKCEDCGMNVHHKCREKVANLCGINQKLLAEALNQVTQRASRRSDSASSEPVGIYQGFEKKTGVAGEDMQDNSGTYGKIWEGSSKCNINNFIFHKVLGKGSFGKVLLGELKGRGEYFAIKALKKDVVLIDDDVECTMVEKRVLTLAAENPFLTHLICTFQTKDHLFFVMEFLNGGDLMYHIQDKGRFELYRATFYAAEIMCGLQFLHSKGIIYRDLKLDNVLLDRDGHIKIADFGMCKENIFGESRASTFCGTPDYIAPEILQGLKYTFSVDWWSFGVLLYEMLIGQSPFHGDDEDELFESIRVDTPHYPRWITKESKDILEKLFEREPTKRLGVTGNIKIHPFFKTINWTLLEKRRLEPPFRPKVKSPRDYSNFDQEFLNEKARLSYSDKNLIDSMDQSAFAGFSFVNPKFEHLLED
How it was run: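 Assay buffer was 100 mM HEPES pH 7.5, 10 mM MgCl2, 25 mM NaCl, 0.1 mM EDTA, 0.01% Brij. Enzyme buffer was equilibrated with compound in DMSO for 10 min at 30 °C. Ki values were derived by non-linear regression of initial rate data.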

Sequence of PKC theta kinase (Q04759 whole entry): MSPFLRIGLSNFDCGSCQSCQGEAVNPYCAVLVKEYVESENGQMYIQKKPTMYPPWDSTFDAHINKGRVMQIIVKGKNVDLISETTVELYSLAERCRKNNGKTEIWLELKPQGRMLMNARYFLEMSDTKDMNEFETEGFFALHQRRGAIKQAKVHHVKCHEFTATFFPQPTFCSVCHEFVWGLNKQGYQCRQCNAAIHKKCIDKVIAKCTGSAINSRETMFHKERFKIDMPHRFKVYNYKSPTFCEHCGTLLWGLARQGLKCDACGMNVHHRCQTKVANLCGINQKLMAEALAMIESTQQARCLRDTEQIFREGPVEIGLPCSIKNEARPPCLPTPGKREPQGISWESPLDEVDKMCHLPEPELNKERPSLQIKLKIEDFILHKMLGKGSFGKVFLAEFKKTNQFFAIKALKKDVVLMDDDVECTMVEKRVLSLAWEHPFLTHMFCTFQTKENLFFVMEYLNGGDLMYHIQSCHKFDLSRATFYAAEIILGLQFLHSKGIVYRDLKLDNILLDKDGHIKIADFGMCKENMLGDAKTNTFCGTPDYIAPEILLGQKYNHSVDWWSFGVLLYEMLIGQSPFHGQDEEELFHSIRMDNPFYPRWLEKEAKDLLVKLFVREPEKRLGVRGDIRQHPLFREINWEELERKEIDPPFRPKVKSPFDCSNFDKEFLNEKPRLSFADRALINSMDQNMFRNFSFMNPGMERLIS

Structure (SMILES)	Ki [1] [nM]	Ki [2] [nM]	Ki [3] [nM]
CCC(C)(CN)c1cccc(-c2ccnc3[nH]nc(Cl)c23)c1 (stereo not drawn) [Compound 204, 2-(3-(3-chloro-1H-pyrazolo[3,4-b]pyridin-4-yl)phenyl)-2-methylbutan-1-amine]	< 50	< 50	< 50
N#CC1(c2cccc(-c3ccnc4[nH]nc(Cl)c34)c2)CC1 [Compound 205]	< 500	< 50	< 50
NCC1(c2cccc(-c3ccnc4[nH]nc(Cl)c34)c2)CCOCC1 [Compound 206]	< 500	< 50	< 500
Cc1cc(-c2ccnc3[nH]nc(Cl)c23)cc(C2(CN)CCC2)c1 [Compound 207]	< 500	< 50	< 500
CCC(C)(CN)c1cc(CCCO)cc(-c2ccnc3[nH]nc(Cl)c23)c1 (stereo not drawn) [Compound 208]	< 500	< 50	< 500
Cc1cc(-c2ccnc3[nH]nc(Cl)c23)cc(C2(CN)CCOCC2)c1 [Compound 209]	< 500	< 50	< 500
CCc1cc(-c2ccnc3[nH]nc(Cl)c23)cc(C2(CN)CCC2)c1 [Compound 211]	< 500	< 50	< 2800
CCC(C)(CN)c1cccc(-c2ccnc3[nH]nc(C)c23)c1 (stereo not drawn) [Compound 212, 2-methyl-2-(3-(3-methyl-1H-pyrazolo[3,4-b]pyridin-4-yl)phenyl)butan-1-amine]	< 50	< 50	< 50
CCC(C)(CN)c1cccc(-c2ccnc3[nH]nc(C(F)(F)F)c23)c1 (stereo not drawn) [Compound 213, 2-methyl-2-(3-(3-(trifluoromethyl)-1H-pyrazolo[3,4-b]pyridin-4-yl)phenyl)butan-1-amine]	< 50	< 50	< 50
NCC1(c2cccc(-c3ccnc4[nH]nc(C(F)(F)F)c34)c2)CCOCC1 [Compound 214]	< 500	< 50	< 500
Cc1cc(-c2ccnc3[nH]nc(C(F)(F)F)c23)cc(C2(CN)CCC2)c1 [Compound 215]	< 500	< 50	< 500
C1=C(c2cccc(-c3ccnc4[nH]ncc34)c2)CCNC1 [Compound 216]	< 2800	< 500	< 2800
COc1ccc(C2(C#N)CCC2)cc1-c1ccnc2[nH]ncc12 [Compound 221]	> 1200	> 700	> 2000
COc1ccc(C2(CN)CCC2)cc1-c1ccnc2[nH]ncc12 [Compound 222]	> 1200	> 700	> 2000
NC1(c2cccc(-c3ccnc4[nH]ncc34)c2)CC1 [Compound 223]	> 1200	< 2800	> 2000
N#CC1(c2cccc(-c3ccnc4[nH]ncc34)c2)CC(F)(F)C1 [Compound 226]	> 1200	> 700	> 1200
c1cc(-c2ccnc3[nH]ncc23)cc(C2CCNCC2)c1 [Compound 230]	< 2800	< 2800	< 2800
C1=C(c2cccc(-c3ccnc4[nH]ncc34)c2)CNC1 [Compound 231]	< 2800	< 500	< 2800
NCC1(c2cccc(-c3ccnc4[nH]ncc34)c2)COC1 [Compound 233]	> 1200	< 500	< 2800
NCC1(c2cccc(-c3ccnc4[nH]ncc34)c2)CC(F)(F)C1 [Compound 235]	> 1200	< 50	< 500
OCC1(c2cccc(-c3ccnc4[nH]ncc34)c2)CCC1 [Compound 242]	> 1200	< 500	> 2000
OCC1(c2cccc(-c3ccnc4[nH]ncc34)c2)CC1 [Compound 243]	> 1200	< 500	> 2000
N[C@H]1CCC[C@@H]1c1cccc(-c2ccnc3[nH]ncc23)c1 [Compound 251]	> 1200	< 500	> 1200
NC(CCC1CCCCC1)c1cccc(-c2ccnc3[nH]ncc23)c1 (stereo not drawn) [Compound 252]	> 1200	> 700	> 1200
NC(CCC1CCCC1)c1cccc(-c2ccnc3[nH]ncc23)c1 (stereo not drawn) [Compound 253]	> 1200	> 700	> 1200
CCC1(c2cccc(-c3ccnc4[nH]ncc34)c2)CNC(=O)O1 (stereo not drawn) [Compound 254]	< 500	< 50	< 500
NCC1(c2cc(F)cc(-c3ccnc4[nH]nc(Cl)c34)c2)CCC1 [Compound 255]	< 50	< 50	< 50
NCC1(c2cc(F)cc(-c3ccnc4[nH]nc(Cl)c34)c2)CCOCC1 [Compound 257]	< 500	< 50	< 500
CCC(C)(CN)c1cc(F)cc(-c2ccnc3[nH]nc(Cl)c23)c1 (stereo not drawn) [Compound 258]	< 50	< 50	< 50
N#CC1(c2cccc(-c3ccnc4[nH]nc(Cl)c34)c2)CCC1 [Compound 259]	< 500	< 50	< 500

Second part, the compound after the results:

Ki [1] [nM]	Ki [2] [nM]	Ki [3] [nM]	Structure (SMILES)
> 2800	< 2800	> 2800	OCC1CCc2ccc(-c3ccnc4[nH]ncc34)cc21 (stereo not drawn) [Compound 203, (6-(1H-Pyrazolo[3,4-b]pyridin-4-yl)-2,3-dihydro-1H-inden-1-yl)methanol]
< 500	< 50	< 2800	CCCc1cc(-c2ccnc3[nH]nc(Cl)c23)cc(C(C)(CC)CN)c1 (stereo not drawn) [Compound 210]
> 1200	< 2800	> 2000	C=CCc1cc(-c2ccnc3[nH]ncc23)cc(C(C)(C)CC#N)c1 [Compound 217]
< 2800	< 500	> 2000	CCCc1cc(-c2ccnc3[nH]ncc23)cc(C(C)(C)CC#N)c1 [Compound 218]
> 1200	> 700	> 2000	Cc1cnc2[nH]ncc2c1-c1cccc(C(C)(C)C#N)c1 [Compound 219]
> 1200	< 500	> 2000	N#C[C@]1(c2cccc(-c3ccnc4[nH]ncc34)c2)C[C@@H](O)C1 [Compound 220]
> 1200	< 500	> 2000	N#CC(CCO)c1cccc(-c2ccnc3[nH]ncc23)c1 (stereo not drawn) [Compound 224]
< 2800	< 500	< 2800	N#CC(CCN)c1cccc(-c2ccnc3[nH]ncc23)c1 (stereo not drawn) [Compound 225]
< 500	< 50	< 2800	CCC(F)(CN)c1cc(C)cc(-c2ccnc3[nH]ncc23)c1 (stereo not drawn) [Compound 227]
< 500	< 50	< 2800	CCC1(c2cc(C)cc(-c3ccnc4[nH]ncc34)c2)CNC(=O)O1 (stereo not drawn) [Compound 228]
< 500	< 50	< 500	N#C[C@]1(c2cccc(-c3ccnc4[nH]ncc34)c2)C[C@H](N)C1 [Compound 229]
< 500	< 50	< 500	CCC(CN)c1cccc(-c2ccnc3[nH]ncc23)c1 (stereo not drawn) [Compound 232]
< 500	< 50	< 50	CC#CCC(C)(CN)c1cc(C)cc(-c2ccnc3[nH]ncc23)c1 (stereo not drawn) [Compound 234]
< 500	< 2800	< 2800	Cc1cnc2[nH]ncc2c1-c1cccc(C(C)(C)CN)c1 [Compound 237, 2-methyl-2-(3-(5-methyl-1H-pyrazolo[3,4-b]pyridin-4-yl)phenyl)propan-1-amine]
< 2800	< 500	< 2800	CC(CC#N)c1cc(Br)cc(-c2ccnc3[nH]ncc23)c1 (stereo not drawn) [Compound 238]
> 1200	> 700	> 2000	CCC(C)(CC#N)c1cc(-c2ccnc3[nH]ncc23)cc(C(F)(F)CCC2CCCC2)c1 (stereo not drawn) [Compound 239]
> 1200	< 500	> 2000	N#CCCc1cc(-c2ccnc3[nH]ncc23)cc(C2(C#N)CC2)c1 [Compound 240]
< 500	< 50	< 2800	CCC(C)(CO)c1cc(C)cc(-c2ccnc3[nH]ncc23)c1 (stereo not drawn) [Compound 241]
> 1200	> 700	> 1200	CC(O)c1cccc(-c2ccnc3[nH]ncc23)c1 (stereo not drawn) [Compound 244]
> 1200	< 500	> 1200	CCC(N)c1cccc(-c2ccnc3[nH]ncc23)c1 (stereo not drawn) [Compound 245]
> 1200	< 500	< 2800	CC(N)c1cccc(-c2ccnc3[nH]ncc23)c1 (stereo not drawn) [Compound 246]
> 1200	< 500	> 1200	CCCCNC(CC)c1cccc(-c2ccnc3[nH]ncc23)c1 (stereo not drawn) [Compound 247]
< 2800	< 500	< 2800	COC(CN)c1cc(C)cc(-c2ccnc3[nH]ncc23)c1 (stereo not drawn) [Compound 248]
< 500	< 50	< 2800	N#C[C@]1(c2cccc(-c3ccnc4[nH]ncc34)c2)C[C@@H](N)C1 [Compound 249]
< 500	< 500	< 2800	Cc1cc(-c2ccnc3[nH]ncc23)cc(C(N)C2CC2(F)F)c1 (stereo not drawn) [Compound 250]
< 50	< 50	< 500	CCc1cc(-c2ccnc3[nH]nc(Cl)c23)cc(C(C)(CC)CN)c1 (stereo not drawn) [Compound 256]

Source: patent US8173635B2, “Kinase inhibitors” (Vertex Pharmaceuticals Incorporated, priority 2007, dated 2012)
